Experimental data as given in PubChem BioAssay AID623929 (Vanderbilt Specialized Chemistry Center, 2012).

Molecular target: Metabotropic glutamate receptor 2 (Rattus norvegicus) (UniProt P31421)
Assay: PubChem AID 623929
Settings: HEK293 GIRK rat mGlu2, thallium flux fluorescence

Sequence of Metabotropic glutamate receptor 2 (Rattus norvegicus) (P31421 whole entry, looked up): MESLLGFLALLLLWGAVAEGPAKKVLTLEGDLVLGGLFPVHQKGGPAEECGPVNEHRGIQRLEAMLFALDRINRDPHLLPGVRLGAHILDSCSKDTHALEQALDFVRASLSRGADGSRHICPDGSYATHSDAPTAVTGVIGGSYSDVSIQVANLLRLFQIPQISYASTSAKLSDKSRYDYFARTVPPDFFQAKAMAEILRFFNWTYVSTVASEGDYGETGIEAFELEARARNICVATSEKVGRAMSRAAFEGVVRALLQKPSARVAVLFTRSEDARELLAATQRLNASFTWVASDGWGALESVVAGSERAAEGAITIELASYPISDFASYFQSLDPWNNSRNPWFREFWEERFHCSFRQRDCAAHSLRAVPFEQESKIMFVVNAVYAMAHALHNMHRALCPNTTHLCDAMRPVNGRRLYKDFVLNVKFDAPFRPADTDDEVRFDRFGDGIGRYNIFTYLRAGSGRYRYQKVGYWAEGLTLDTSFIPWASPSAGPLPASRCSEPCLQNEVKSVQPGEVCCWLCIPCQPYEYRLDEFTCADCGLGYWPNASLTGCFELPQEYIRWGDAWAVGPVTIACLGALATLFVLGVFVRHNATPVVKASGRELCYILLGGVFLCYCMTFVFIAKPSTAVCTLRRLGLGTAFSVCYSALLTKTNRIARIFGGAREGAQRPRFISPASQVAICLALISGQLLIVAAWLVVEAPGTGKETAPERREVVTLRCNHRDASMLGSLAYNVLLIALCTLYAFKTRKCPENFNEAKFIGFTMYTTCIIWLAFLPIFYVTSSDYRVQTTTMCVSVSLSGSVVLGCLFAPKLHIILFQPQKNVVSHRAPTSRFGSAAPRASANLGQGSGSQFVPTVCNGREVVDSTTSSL

Compound | IC50
COc1ccc(C#Cc2ccc(C(=O)N3CCC[C@@H](CO)C3)cc2)cc1 | 10 µM
COc1ccc(C#Cc2ccc(C(=O)N3CCC[C@H](CO)C3)cc2)cc1 | 10 µM
COc1ccc(C#Cc2ccc(C(=O)N3CCCC(CO)C3)cc2)cc1 (stereo not drawn) | 10 µM
